From ChEMBL document CHEMBL1134572, “Specific inhibition of a family 1A dihydroorotate dehydrogenase by benzoate pyrimidine analogues” (J Med Chem, 2001)

Experiments:
Lactococcus lactis = test: Inhibitory activity against family of dihydroorotate dehydrogenase 1A (1A DHOD) from Lactococcus lactis at 1 uMolar concentration; set-up: scale not given: the % may be the effect or the level left; conditions: 1 uM
[1] = Dissociation constant against 1A […] dehydrogenase (1A DHOD) from Lactococcus lactis at 25 degrees C pH 8.0
[2] = Inhibition constant against 1A […] dehydrogenase (1A DHOD) from Lactococcus lactis
[3] = Dissociation constant against dihydroorotate dehydrogenase 1A (1A DHOD) from Lactococcus lactis at 25 degrees C pH 8.0
[4] = Inhibition constant against dihydroorotate dehydrogenase 1A (1A DHOD) from Lactococcus lactis

Structure (SMILES) | Activity (Lactococcus lactis) | other results
O=C(O)c1ccccc1O | 81% | 
O=C(O)c1ccc(O)c(O)c1 [PROTOCATECHUIC ACID] | 7% | Kd [1]: 19 µM; Ki [2]: 12 µM
O=C(O)c1ccc(O)cc1 | 92% | 
O=C(O)c1cc(O)cc(O)c1 [3,5-DIHYDROXYBENZOIC ACID] | 6% | Kd [3]: 18.4 µM; Ki [4]: 21 µM
O=C(O)c1ccc(O)nc1 | 94% | 
O=C(O)c1ccc(O)cc1O | 91% | 
